In brackets after ≈: the same amount, converted by molar mass. Like-named read-outs stand apart in the source and are kept apart here.
Columns and labels:
[1] = Solubility (characterization); assay type: physicochemical; settings: solvents as named in the value
Pseudomonas aeruginosa = test: MIC, standard microplate agar assay, PYG agar pH 6 (aerobic bacteria); assay type: cell-based; settings: read-out: MINIMAL INHIBITORY CONCENTRATION
Procedure: (§1) The antibacterial assay is a standard microplate agar assay using PYG agar, pH 6. PYG agar consists of the following ingredients:
(§2) The MIC is determined by standard methods. The inocula are overnight cultures of the test organisms, diluted so that the final population contains approximately 10^5 cells/ml. The agar plates are incubated at 28°C to 37°C for 24 hrs. The lowest antibiotic concentration which allows no growth=MIC or minimum inhibitory concentration.
as §2, with “growth-HIC” for “growth=MIC”

Proteus vulgaris = test: as above; assay type: cell-based; settings: UC30264, 24 h; Proteus vulgaris UC 30264, pH 6; read-out: MINIMAL INHIBITORY CONCENTRATION
Procedure: as §1, §2
as §2, with “growth-HIC” for “growth=MIC”

Staphylococcus aureus = test: as above; assay type: cell-based; settings: read-out: MINIMAL INHIBITORY CONCENTRATION
Procedure: as §1, §2
as §2, with “growth-HIC” for “growth=MIC”

Citrobacter freundii = test: as above; assay type: cell-based; settings: UC3507, 24 h; Citrobacter freundii UC 3507, pH 6; read-out: MINIMAL INHIBITORY CONCENTRATION
Procedure: as §1, §2
as §2, with “growth-HIC” for “growth=MIC”

Escherichia coli = test: as above; assay type: cell-based; settings: read-out: MINIMAL INHIBITORY CONCENTRATION
Procedure: as §1, §2
as §2, with “growth-HIC” for “growth=MIC”

Streptococcus faecalis = test: as above; assay type: cell-based; settings: Enterococcus faecalis, UC694, 24 h; Streptococcus faecalis UC 694, pH 6; read-out: MINIMAL INHIBITORY CONCENTRATION
Procedure: as §1, §2
as §2, with “growth-HIC” for “growth=MIC”

Klebsiella oxytoca = test: as above; assay type: cell-based; settings: read-out: MINIMAL INHIBITORY CONCENTRATION
Procedure: as §1, §2
as §2, with “growth-HIC” for “growth=MIC”

Serratia marcescens = test: as above; assay type: cell-based; settings: for MIC: Serratia marcescens, UC6888, 24 h, pH 6, Serratia marcescens UC 6888, pH 6, read-out: MINIMAL INHIBITORY CONCENTRATION
Procedure: as §1, §2
as §2, with “growth-HIC” for “growth=MIC”

Klebsiella pneumoniae = test: as above; assay type: cell-based; settings: UC58, 24 h; Klebsiella pneumoniae UC 58, pH 6; read-out: MINIMAL INHIBITORY CONCENTRATION
Procedure: as §1, §2
as §2, with “growth-HIC” for “growth=MIC”

Enterobacter cloacae = test: as above; assay type: cell-based; settings: read-out: MINIMAL INHIBITORY CONCENTRATION
Procedure: as §1, §2
as §2, with “growth-HIC” for “growth=MIC”

[2] = tested on: Staphylococcus aureus U.C. 6685; test: Antibacterial activity in vivo, experimentally infected mouse; settings: sc, dosed subcutaneously, infected experimentally with Staphylococcus aureus U.C. 6685, read-out: CD50 (the source's name)
[3] = UC6432, 24 h, Pseudomonas aeruginosa UC 6432, pH 6
[4] = UC9191, 24 h, Pseudomonas aeruginosa UC 9191, pH 6
[5] = UC3665, 24 h, Staphylococcus aureus UC 3665, pH 6
[6] = UC6675, 24 h, Staphylococcus aureus UC 6675, pH 6
[7] = UC6685, 24 h, Staphylococcus aureus UC 6685, pH 6
[8] = UC311, 24 h, Escherichia coli UC 311, pH 6
[9] = UC9379, 24 h, Escherichia coli UC 9379, pH 6
[10] = UC9380, 24 h, Escherichia coli UC 9380, pH 6
[11] = UC9383, 24 h, Klebsiella oxytoca UC 9383, pH 6
[12] = UC9384, 24 h, Klebsiella oxytoca UC 9384, pH 6
[13] = UC9381, 24 h, Enterobacter cloacae UC 9381, pH 6
[14] = UC9382, 24 h, Enterobacter cloacae UC 9382, pH 6

Structure (SMILES)	Solubility [1]	MIC (Pseudomonas aeruginosa; [3]) [µg/mL]	MIC (Pseudomonas aeruginosa; [4]) [µg/mL]	MIC (Proteus vulgaris) [µg/mL]	MIC (Staphylococcus aureus; [5]) [µg/mL]	MIC (Staphylococcus aureus; [6]) [µg/mL]	MIC (Staphylococcus aureus; [7]) [µg/mL]	MIC (Citrobacter freundii) [µg/mL]	MIC (Escherichia coli; [8]) [µg/mL]	MIC (Escherichia coli; [9]) [µg/mL]	MIC (Escherichia coli; [10]) [µg/mL]	MIC (Streptococcus faecalis) [µg/mL]	MIC (Klebsiella oxytoca; [11]) [µg/mL]	MIC (Klebsiella oxytoca; [12]) [µg/mL]	MIC (Serratia marcescens) [µg/mL]	MIC (Klebsiella pneumoniae) [µg/mL]	MIC (Enterobacter cloacae; [13]) [µg/mL]	MIC (Enterobacter cloacae; [14]) [µg/mL]	MINIMAL INHIBITORY CONCENTRATION (Serratia marcescens; Serratia marcescens UC 6888, pH 6) [µg/mL]	ED50 [2] [mg/kg]
CC=C(N=C=S)C(=O)OC1C(COC(C)=O)OC(C2(O)CC(=O)C(O)=C(C(N)=O)C2=O)C(O)C1OC1CC(OC)C(O)(C(C)OC(=O)CC(C)C)C(C)O1 (stereo not drawn) [Paulomycin A2]	Soluble in lower alcohols, ketones, ethyl acetate, chloroform, methylene chloride; less soluble in ether; insoluble in saturated hdyrocarbon solvents	> 64	> 64	32 (≈ 40.7 µM)	0.12 (≈ 0.153 µM)	0.12 (≈ 0.153 µM)	0.12 (≈ 0.153 µM)	> 64	> 64	> 64	> 64	0.25 (≈ 0.318 µM)	> 64	> 64	> 64	> 64	> 64	> 64	–	–
CC=C(N=C=S)C(=O)OC1C(COC(C)=O)OC(C2(O)CC(=O)C(O)=C(C(N)=O)C2=O)C(O)C1OC1CC(OC)C(O)(C(C)OC(=O)C(C)CC)C(C)O1 (stereo not drawn) [Paulomycin A]	–	> 64	> 64	16 (≈ 20.3 µM)	0.12 (≈ 0.153 µM)	0.12 (≈ 0.153 µM)	0.12 (≈ 0.153 µM)	> 64	> 64	> 64	> 64	0.25 (≈ 0.318 µM)	> 64	> 64	> 64	> 64	> 64	> 64	64	–
CC=C(N=C=S)C(=O)OC1C(COC(C)=O)OC(C2(O)CC(=O)C(O)=C(C(N)=O)C2=O)C(O)C1OC1CC(OC)C(O)(C(C)=O)C(C)O1 (stereo not drawn) [Paulomycin E]	Soluble in lower alcohols, ketones, ethyl acetate, chloroform, methylene chloride; less soluble in ether; insoluble in saturated hdyrocarbon solvents	> 64	> 64	> 64	1 (≈ 1.43 µM)	1 (≈ 1.43 µM)	1 (≈ 1.43 µM)	> 64	> 64	> 64	> 64	1 (≈ 1.43 µM)	> 64	> 64	> 64	> 64	> 64	> 64	–	–
CCC(C)C(=O)OC(C)C1(O)C(C)OC(OC2C(O)C(C3(O)CC(=O)C(O)=C(C(N)=O)C3=O)OC(COC(C)=O)C2OC(=O)C(NC(=S)SC[C@H](NC(C)=O)C(=O)O)C(C)SCCO)CC1OC (stereo partly drawn) [R2=CH2CH2OH R3=CH2CHCOOH | NHCOCH3]	–	–	–	–	–	–	–	–	–	–	–	–	–	–	–	–	–	–	–	15.3
CCC(C)C(=O)OC(C)C1(O)C(C)OC(OC2C(O)C(C3(O)CC(=O)C(O)=C(C(N)=O)C3=O)OC(COC(C)=O)C2OC(=O)C(NC(=S)SCCO)C(C)SC[C@H](NC(C)=O)C(=O)O)CC1OC (stereo partly drawn) [R2=CH2CHCOOH | NHCOCH3 R3=CH2CH2OH]	–	–	–	–	–	–	–	–	–	–	–	–	–	–	–	–	–	–	–	8
CCC(C)C(=O)OC(C)C1(O)C(C)OC(OC2C(O)C(C3(O)CC(=O)C(O)=C(C(N)=O)C3=O)OC(COC(C)=O)C2OC(=O)C(NC(=S)SCCO)C(C)SC(CC(=O)O)C(=O)O)CC1OC (stereo not drawn) [R2=CHCOOH | CH2COOH R3=CH2CH2OH]	–	–	–	–	–	–	–	–	–	–	–	–	–	–	–	–	–	–	–	44
